In assay [1] the target is human GLP-1 receptor (Homo sapiens, UniProt P43220). As to the kind of experiment: cell-based. The following applies: hGLP-1R.
Method: (§1) The in vitro functional potency is the measure of target receptor activation in a whole cell assay.
(§2) In vitro functional potency was determined by measuring the response of the target receptor in a reporter gene assay in individual cell lines. […] When the respective receptor is activated, it results in the production of cAMP, which in turn results in expression of the luciferase protein. When assay incubation is completed, luciferase substrate (luciferin) is added resulting in the enzymatic conversion of luciferin to oxyluciferin and producing bioluminescence. The luminescence is measured as the readout for the assay.
(§3) The cells lines used in these assays were BHK cells with BHKTS13 as a parent cell line. The cell lines were derived from a clone containing the CRE luciferase element and were established by further transfection with the respective receptor to obtain the relevant cell line.
(§4) The cells were cultured at 37° C. with 5% CO2 in Cell Culture Medium. They were aliquoted and stored in liquid nitrogen. The cells were kept in continuous culture and were seeded out the day before each assay.
(§5) GLP-1R and GcgR Cell Culture Medium consisted of DMEM medium with 10% FBS, 500 μg/mL G418, and 300 μg/mL hygromycin. GIPR Cell Culture Medium consisted of DMEM medium with 10% FBS, 400 μg/mL G418, and 300 μg/mL hygromycin. Assay Buffer consisted of DMEM w/o phenol red, 10 mM Hepes, 1×Glutamax, 1% ovalbumin, and 0.1% Pluronic F-68 with the addition of HSA at twice the final assay concentration.
(§6) • 1) Cells were plated at 5000 cells/well and incubated overnight in the assay plate. • 2) Cells were washed once in DPBS. • 3) Stocks of the test compounds and reference compounds in concentrations ranging from 100-300 μM were diluted 1:150 in Assay Buffer. Compounds were then diluted 1:10 in column 1 of a 96 deep well dilution plate and then carried across the row creating a 3.5 fold, 12 point dilution curve. • 4) Assay Buffer (50 μl aliquot) with or without HSA was added to each well in the assay plate. • 5) A 50 μl aliquot of compound or blank was transferred from the dilution plate to the assay plate containing the Assay Buffer with or without HSA. • 6) The assay plate was incubated for 3 h in a 5% CO2 incubator at 37° C. 7) The cells were washed once with DPBS. • 8) A 100 μl aliquot of DPBS was added to each well of the assay plate. • 9) A 100 μl aliquot of steadylite plus reagent (light sensitive) was added to each well of the assay plate. • 10) Each assay plate was covered with aluminum foil to protect it from light and shaken at 250 RPM for 30 min at room temperature. • 11) Each assay plate was read in a microtiter plate reader.
(§7) The data from the microtiter plate reader was first regressed in an Excel in order to calculate the x-axis, log scale concentrations based on the individual test compound's stock concentration and the dilutions of the assay. […] The software performs a non-linear regression (log(agonist) vs response). A minimum of two replicates was measured for each sample. The reported values are averages of the replicates.
Assay [2] has as its target T1, mouse GIP receptor (Mus musculus, UniProt Q0P543).
T1 sequence (Q0P543 19-460): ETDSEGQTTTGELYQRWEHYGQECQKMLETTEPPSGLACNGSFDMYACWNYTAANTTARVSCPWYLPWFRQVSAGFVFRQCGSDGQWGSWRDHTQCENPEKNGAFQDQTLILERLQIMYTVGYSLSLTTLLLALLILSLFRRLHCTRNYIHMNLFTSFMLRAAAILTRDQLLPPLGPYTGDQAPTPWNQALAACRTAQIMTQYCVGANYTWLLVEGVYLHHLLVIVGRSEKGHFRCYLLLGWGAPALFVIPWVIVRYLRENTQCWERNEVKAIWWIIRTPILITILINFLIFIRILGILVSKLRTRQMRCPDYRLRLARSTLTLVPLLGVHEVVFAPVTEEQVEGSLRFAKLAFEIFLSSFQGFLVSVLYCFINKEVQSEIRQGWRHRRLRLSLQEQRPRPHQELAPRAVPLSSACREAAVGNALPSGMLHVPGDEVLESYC
As to the kind of experiment: cell-based.

For assay [3], the target named is T2, mouse GLP-1 receptor (Mus musculus, UniProt O35659).
T2 sequence (O35659 22-463): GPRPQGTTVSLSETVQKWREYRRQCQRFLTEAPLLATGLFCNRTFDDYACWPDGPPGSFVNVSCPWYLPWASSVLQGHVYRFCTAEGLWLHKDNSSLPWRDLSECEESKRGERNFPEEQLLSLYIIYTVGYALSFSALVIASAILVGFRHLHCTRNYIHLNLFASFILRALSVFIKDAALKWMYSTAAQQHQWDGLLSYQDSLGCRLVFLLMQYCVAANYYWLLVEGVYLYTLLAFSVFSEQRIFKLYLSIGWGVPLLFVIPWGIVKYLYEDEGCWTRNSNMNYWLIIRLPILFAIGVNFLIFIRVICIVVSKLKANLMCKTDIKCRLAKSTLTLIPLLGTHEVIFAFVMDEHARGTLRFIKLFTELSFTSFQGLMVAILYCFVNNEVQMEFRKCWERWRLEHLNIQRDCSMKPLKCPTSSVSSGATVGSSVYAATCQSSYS
Method: as §1, §2, §3, §4, §5, §6, §7

Starred links: 1 amine or outer side, 2 acyl side, 3 side chain; linkers in the order of their positions; H or OH if unused. Non-standard residues stand in square brackets, D forms with d. Residues, ends and D or L forms follow the SMILES beside them. Groups on a side chain read outwards from the residue. *: point of attachment. C18 diacid = O=C(O)CCCCCCCCCCCCCCCCC(=O)*; γGlu = O=C(O)[C@H](CCC(=O)[*:2])N[*:1]; εLys = N[C@@H](CCCCN[*:1])C(=O)[*:2]; AEEA = NCCOCCOCC(=O)O; Aib = CC(C)(N)C(=O)O

Sequence of human GLP-1 receptor (P43220 24-463): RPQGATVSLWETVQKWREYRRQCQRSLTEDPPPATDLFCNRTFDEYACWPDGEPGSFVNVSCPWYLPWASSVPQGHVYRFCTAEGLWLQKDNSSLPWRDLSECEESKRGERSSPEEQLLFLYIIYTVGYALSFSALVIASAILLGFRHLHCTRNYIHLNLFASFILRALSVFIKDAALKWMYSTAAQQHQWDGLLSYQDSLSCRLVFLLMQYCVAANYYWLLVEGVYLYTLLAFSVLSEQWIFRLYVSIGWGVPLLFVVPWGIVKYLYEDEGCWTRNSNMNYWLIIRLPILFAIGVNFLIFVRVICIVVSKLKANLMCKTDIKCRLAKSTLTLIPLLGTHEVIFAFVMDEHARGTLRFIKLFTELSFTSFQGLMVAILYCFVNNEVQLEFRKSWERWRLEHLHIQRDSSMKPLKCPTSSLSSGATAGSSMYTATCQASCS

Usually EC50 stands for the midpoint of the concentration-response curve. Low readings indicate an effect from little substance, high ones a need for much substance. Take `CC[C@H](C)[C@H](NC(=O)[C@H](CO)NC(=O)[C@H](Cc1ccc(O)cc1)NC(=O)[C@H](CC(=O)O)NC(=O)[C@H](CO)NC(=O)[C@@H](NC(=O)[C@H](Cc1ccccc1)NC(=O)[C@@H](NC(=O)CNC(=O)[C@H](CCC(=O)O)NC(=O)C(C)(C)NC(=O)[C@@H](N)Cc1ccc(O)cc1)[C@@H](C)O)[C@@H](C)O)C(=O)N[C@@H](Cc1ccc(O)cc1)C(=O)N[C@@H](CC(C)C)C(=O)N[C@@H](CC(=O)O)C(=O)N[C@@H](CCCCN)C(=O)N[C@@H](CCC(N)=O)C(=O)N[C@@H](C)C(=O)N[C@@H](C)C(=O)NC(C)(C)C(=O)N[C@@H](CCC(=O)O)C(=O)N[C@@H](Cc1ccccc1)C(=O)N[C@H](C(=O)N[C@@H](CC(N)=O)C(=O)N[C@@H](Cc1c[nH]c2ccccc12)C(=O)N[C@@H](CC(C)C)C(=O)N[C@@H](CC(C)C)C(=O)N[C@@H](C)C(=O)NCC(=O)NCC(=O)N1CCC[C@H]1C(=O)N[C@@H](CO)C(=O)N[C@@H](CO)C(=O)NCC(=O)N[C@@H](C)C(=O)N1CCC[C@H]1C(=O)N1CCC[C@H]1C(=O)N1CCC[C@H]1C(=O)N[C@@H](CO)C(=O)N[C@@H](CCCCNC(=O)CCCCCCCCCCCCCCCCC(=O)O)C(N)=O)C(C)C` [Compound 2]: the EC50 came out at 0.0675 nM in assay [1] (CRE Luc 0% HSA EC50, 0% HSA) and 0.439 nM in assay [1] (CRE Luc 1% HSA EC50, 1% HSA).

On to `CC[C@H](C)[C@H](NC(=O)[C@H](CO)NC(=O)[C@H](Cc1ccc(O)cc1)NC(=O)[C@H](CC(=O)O)NC(=O)[C@H](CO)NC(=O)[C@@H](NC(=O)[C@H](Cc1ccccc1)NC(=O)[C@@H](NC(=O)CNC(=O)[C@H](CCC(=O)O)NC(=O)C(C)(C)NC(=O)[C@@H](N)Cc1ccc(O)cc1)[C@@H](C)O)[C@@H](C)O)C(=O)N[C@@H](Cc1ccc(O)cc1)C(=O)N[C@@H](CC(C)C)C(=O)N[C@@H](CC(=O)O)C(=O)N[C@@H](CCCCN)C(=O)N[C@@H](CCC(N)=O)C(=O)N[C@@H](C)C(=O)N[C@@H](C)C(=O)NC(C)(C)C(=O)N[C@@H](CCC(=O)O)C(=O)N[C@@H](Cc1ccccc1)C(=O)N[C@H](C(=O)N[C@@H](CC(N)=O)C(=O)N[C@@H](Cc1c[nH]c2ccccc12)C(=O)N[C@@H](CC(C)C)C(=O)N[C@@H](CC(C)C)C(=O)N[C@@H](C)C(=O)NCC(=O)NCC(=O)N1CCC[C@H]1C(=O)N[C@@H](CO)C(=O)N[C@@H](CO)C(=O)NCC(=O)N[C@@H](C)C(=O)N1CCC[C@H]1C(=O)N1CCC[C@H]1C(=O)N1CCC[C@H]1C(=O)N[C@@H](CO)C(=O)N[C@@H](CCCCNC(=O)COCCOCCNC(=O)COCCOCCNC(=O)CC[C@H](NC(=O)CCCCCCCCCCCCCCCCC(=O)O)C(=O)O)C(N)=O)C(C)C` [Compound 3], for which the EC50 in assay [1] (CRE Luc 0% HSA EC50, 0% HSA) is 0.0134 nM; in assay [1] (CRE Luc 1% HSA EC50, 1% HSA) it was 0.606 nM.

Regarding `CC[C@H](C)[C@H](NC(=O)[C@H](CO)NC(=O)[C@H](Cc1ccc(O)cc1)NC(=O)[C@H](CC(=O)O)NC(=O)[C@H](CO)NC(=O)[C@@H](NC(=O)[C@H](Cc1ccccc1)NC(=O)[C@@H](NC(=O)CNC(=O)[C@H](CCC(=O)O)NC(=O)C(C)(C)NC(=O)[C@@H](N)Cc1ccc(O)cc1)[C@@H](C)O)[C@@H](C)O)C(=O)N[C@@H](Cc1ccc(O)cc1)C(=O)N[C@@H](CC(C)C)C(=O)N[C@@H](CC(=O)O)C(=O)N[C@@H](CCCCN)C(=O)N[C@@H](CCCCNC(=O)COCCOCCNC(=O)COCCOCCNC(=O)CC[C@H](NC(=O)CCCCCCCCCCCCCCCCC(=O)O)C(=O)O)C(=O)N[C@@H](C)C(=O)N[C@@H](C)C(=O)NC(C)(C)C(=O)N[C@@H](CCC(=O)O)C(=O)N[C@@H](Cc1ccccc1)C(=O)N[C@H](C(=O)N[C@@H](CC(N)=O)C(=O)N[C@@H](Cc1c[nH]c2ccccc12)C(=O)N[C@@H](CC(C)C)C(=O)N[C@@H](CC(C)C)C(=O)N[C@@H](C)C(=O)NCC(=O)NCC(=O)N1CCC[C@H]1C(=O)N[C@@H](CO)C(=O)N[C@@H](CO)C(=O)NCC(=O)N[C@@H](C)C(=O)N1CCC[C@H]1C(=O)N1CCC[C@H]1C(=O)N1CCC[C@H]1C(=O)N[C@@H](CO)C(N)=O)C(C)C` [Compound 4] (H-Y[Aib]EGTFTSDYSIYLDKK([AEEA-AEEA-γGlu-C18 diacid])AA[Aib]EFVNWLLAGGPSSGAPPPS-NH2; N-terminus assumed), the EC50 worked out at 1.55 nM in assay [2]; 0.0039 nM in assay [3]; 0.0106 nM in assay [1] (CRE Luc 0% HSA EC50, 0% HSA); 0.232 nM in assay [1] (CRE Luc 1% HSA EC50, 1% HSA).

Consider `CC[C@H](C)[C@H](NC(=O)[C@H](CO)NC(=O)[C@H](Cc1ccc(O)cc1)NC(=O)[C@H](CC(=O)O)NC(=O)[C@H](CO)NC(=O)[C@@H](NC(=O)[C@H](Cc1ccccc1)NC(=O)[C@@H](NC(=O)CNC(=O)[C@H](CCC(=O)O)NC(=O)C(C)(C)NC(=O)[C@@H](N)Cc1ccc(O)cc1)[C@@H](C)O)[C@@H](C)O)C(=O)N[C@@H](Cc1ccc(O)cc1)C(=O)N[C@@H](CC(C)C)C(=O)N[C@@H](CC(=O)O)C(=O)N[C@@H](CCCCN)C(=O)N[C@@H](CCC(N)=O)C(=O)N[C@@H](C)C(=O)N[C@@H](C)C(=O)NC(C)(C)C(=O)N[C@@H](CCCCNC(=O)COCCOCCNC(=O)COCCOCCNC(=O)CC[C@H](NC(=O)CCCCCCCCCCCCCCCCC(=O)O)C(=O)O)C(=O)N[C@@H](Cc1ccccc1)C(=O)N[C@H](C(=O)N[C@@H](CC(N)=O)C(=O)N[C@@H](Cc1c[nH]c2ccccc12)C(=O)N[C@@H](CC(C)C)C(=O)N[C@@H](CC(C)C)C(=O)N[C@@H](C)C(=O)NCC(=O)NCC(=O)N1CCC[C@H]1C(=O)N[C@@H](CO)C(=O)N[C@@H](CO)C(=O)NCC(=O)N[C@@H](C)C(=O)N1CCC[C@H]1C(=O)N1CCC[C@H]1C(=O)N1CCC[C@H]1C(=O)N[C@@H](CO)C(N)=O)C(C)C` [Compound 5] (H-Y[Aib]EGTFTSDYSIYLDKQAA[Aib]K([AEEA-AEEA-γGlu-C18 diacid])FVNWLLAGGPSSGAPPPS-NH2; N-terminus assumed), for which the EC50 in assay [2] was 0.523 nM; in assay [3], 0.0025 nM; in assay [1] (CRE Luc 0% HSA EC50, 0% HSA), 0.0092 nM; in assay [1] (CRE Luc 1% HSA EC50, 1% HSA), 0.161 nM.

As to `CC[C@H](C)[C@H](NC(=O)[C@H](CO)NC(=O)[C@H](Cc1ccc(O)cc1)NC(=O)[C@H](CC(=O)O)NC(=O)[C@H](CO)NC(=O)[C@@H](NC(=O)[C@H](Cc1ccccc1)NC(=O)[C@@H](NC(=O)CNC(=O)[C@H](CCC(=O)O)NC(=O)C(C)(C)NC(=O)[C@@H](N)Cc1ccc(O)cc1)[C@@H](C)O)[C@@H](C)O)C(=O)N[C@@H](Cc1ccc(O)cc1)C(=O)N[C@@H](CC(C)C)C(=O)N[C@@H](CC(=O)O)C(=O)N[C@@H](CCCCN)C(=O)N[C@@H](CCC(N)=O)C(=O)N[C@@H](C)C(=O)N[C@@H](C)C(=O)NC(C)(C)C(=O)N[C@@H](CCCCNC(=O)CC[C@H](NC(=O)CC[C@H](NC(=O)CC[C@H](NC(=O)CCCCCCCCCCCCCCCCC(=O)O)C(=O)O)C(=O)O)C(=O)O)C(=O)N[C@@H](Cc1ccccc1)C(=O)N[C@H](C(=O)N[C@@H](CC(N)=O)C(=O)N[C@@H](Cc1c[nH]c2ccccc12)C(=O)N[C@@H](CC(C)C)C(=O)N[C@@H](CC(C)C)C(=O)N[C@@H](C)C(=O)NCC(=O)NCC(=O)N1CCC[C@H]1C(=O)N[C@@H](CO)C(=O)N[C@@H](CO)C(=O)NCC(=O)N[C@@H](C)C(=O)N1CCC[C@H]1C(=O)N1CCC[C@H]1C(=O)N1CCC[C@H]1C(=O)N[C@@H](CO)C(N)=O)C(C)C` [Compound 6] (H-Y[Aib]EGTFTSDYSIYLDKQAA[Aib]K([γGlu-γGlu-γGlu-C18 diacid])FVNWLLAGGPSSGAPPPS-NH2; N-terminus assumed), the EC50 stood at 0.0023 nM in assay [3] and 0.0059 nM in assay [1] (CRE Luc 0% HSA EC50, 0% HSA).

In turn, `CC[C@H](C)[C@H](NC(=O)[C@H](CO)NC(=O)[C@H](Cc1ccc(O)cc1)NC(=O)[C@H](CC(=O)O)NC(=O)[C@H](CO)NC(=O)[C@@H](NC(=O)[C@H](Cc1ccccc1)NC(=O)[C@@H](NC(=O)CNC(=O)[C@H](CCC(=O)O)NC(=O)[C@H](C)NC(=O)[C@@H](Cc1ccc(O)cc1)NC(C)=O)[C@@H](C)O)[C@@H](C)O)C(=O)N[C@@H](Cc1ccc(O)cc1)C(=O)N[C@@H](CC(C)C)C(=O)N[C@@H](CC(=O)O)C(=O)N[C@@H](CCCCN)C(=O)N[C@@H](CCC(N)=O)C(=O)N[C@@H](C)C(=O)N[C@@H](C)C(=O)NC(C)(C)C(=O)N[C@@H](CCCCNC(=O)[C@@H](N)CCCCNC(=O)[C@@H](N)CCCCNC(=O)CC[C@H](NC(=O)CCCCCCCCCCCCCCCCC(=O)O)C(=O)O)C(=O)N[C@@H](Cc1ccccc1)C(=O)N[C@H](C(=O)N[C@@H](CC(N)=O)C(=O)N[C@@H](Cc1c[nH]c2ccccc12)C(=O)N[C@@H](CC(C)C)C(=O)N[C@@H](CC(C)C)C(=O)N[C@@H](C)C(=O)NCC(=O)NCC(=O)N1CCC[C@H]1C(=O)N[C@@H](CO)C(=O)N[C@@H](CO)C(=O)NCC(=O)N[C@@H](C)C(=O)N1CCC[C@H]1C(=O)N1CCC[C@H]1C(=O)N1CCC[C@H]1C(=O)N[C@@H](CO)C(N)=O)C(C)C` [Compound 8] (Ac-[dY]AEGTFTSDYSIYLDKQAA[Aib]K([εLys-εLys-γGlu-C18 diacid])FVNWLLAGGPSSGAPPPS-NH2) displayed an EC50 in assay [3] of 0.017 nM.

For the origin of these results see patent US20230346961A1, “GLP-1 AND GIP RECEPTOR CO-AGONISTS” (Novo Nordisk A/S, priority 2020, published 2023).
